Experiment: Storage stability of microcapsule emulsion / powder (Method 1, spray-drying)
Format: physicochemical
Conditions: liquid and dry form of the microcapsule emulsion, ambient temperature
Experimental: Method 1: Dry Microcapsule Obtained by Atomisation (Spray-Drying)
The emulsion comprising the ingredients above was pre-homogenized with a Polytron™ homogenizer for 3 min at 9000 rpm, then homogenized with a two-stage Avestin™ homogenizer (3*5000 psi+1*500 psi).
Spray drying was performed under the following conditions: spray dryer BUCHI® Mini Spray Drier B-191 with a 2 mm nozzle diameter, air pressure of 60 psi. The emulsion was fed into the main chamber through peristatic pump, feed flow rate was 400 ml/h, inlet air temperature was 160° C. and outlet temperature was 65° C. The dried microcapsules were collected in a cyclone.
Particle size distribution of the final emulsion was less than 1 micron and the powder obtained by atomisation or freeze drying had good rehydration properties, low surface oil and low oxidation during the powder storage. Furthermore, the emulsion in liquid form containing 1.5% sodium caseinate and 15% sunflower oil was physically stable when pasteurized with no preservation agents added to it. Maltodextrin was used as a “wall material” to permit further drying of the emulsion. Additionally, the retention of Altrenogest was well preserved in both the liquid and dry form for a period of at least 5 months at ambient temperature.

C=CC[C@]1(O)CC[C@H]2[C@@H]3CCC4=CC(=O)CCC4=C3C=C[C@@]21C [Altrenogest]
period over which retention of Altrenogest was well preserved: at least 5 months

Reference: patent US20170304260A1, “ALTRENOGEST FORMULATION AND USES THEREOF FOR ESTRUS SYNCHRONISATION IN ANIMALS” (priority 2014, published 2017)
